Results as given in patent publication US8716292B2, “Riminophenazines with 2-(heteroaryl)amino substituents and their anti-microbial activity” (priority 2010, dated 2014).
Converted amounts (≈) assume the structure as drawn.

Each compound was assayed on Mycobacterium tuberculosis H37Rv strains (assay: In vitro assay for antimicrobial susceptibility (microplate Alamar blue MIC)). Conditions: Mycobacterium tuberculosis, H37RV, 7H9, Alamar blue, inhibition ≧90%; read-out: MIC (μg/mL) against H37Rv.
Format: cell-based
Work on Clc1ccc(-n2c3c/c(=N\C4CCOCC4)c(Nc4ncccn4)cc-3nc3ccccc32)cc1 [TBI-860, 5-(4-Chlorophenyl)-3-(4-tetrahydropyranyl)imino-2-(pyrimidin-2-yl)amino-3,5-dihydrophenazine] yielded an MIC of 0.029 µg/mL (≈ 0.06 µM).
CC(C)/N=c1\cc2n(-c3ccc(Cl)cc3)c3ccccc3nc-2cc1Nc1ncccn1 [TBI-1051, 5-(4-chlorophenyl)-3-(1-methylethyl)imino-2-(pyrimidin-2-yl)amino-3,5-dihydrophenazine] gave an MIC of 0.015 µg/mL (≈ 0.034 µM).
Compound COC1CCC(/N=c2\cc3n(-c4ccc(F)cc4)c4ccccc4nc-3cc2Nc2cnccn2)CC1 (stereo not shown) [TBI-1079, 5-(4-Fluorophenyl)-3-(4-methoxycyclohexyl)imino-2-(pyrazin-2-yl)amino-3,5-dihydrophenazine] has an MIC of 0.037 µg/mL (≈ 0.0748 µM).

Same assay, conditions: Mycobacterium tuberculosis, H37RV, in vitro, Mycobacterium tuberculosis H37Rv strains; read-out: MIC (μg/mL) against H37Rv
For COCC(COC)/N=c1\cc2n(-c3ccc(Cl)c(Cl)c3)c3ccccc3nc-2cc1Nc1cccnc1OC [TBI-375, 5-(3,4-Dichlorophenyl)-3-(1,3-dimethoxyisopropyl)imino-2-(2-methoxy-3-pyridyl)amino-3,5-dihydrophenazine], the MIC was 0.125 µg/mL (≈ 0.221 µM).
C/N=c1\cc2n(-c3ccccc3)c3ccccc3nc-2cc1Nc1cccnc1C [TBI-078] showed an MIC of 0.019 µg/mL (≈ 0.0485 µM).
COc1ncccc1Nc1cc2nc3ccccc3n(-c3cccc(Cl)c3)c-2c/c1=N\C1CC1 [TBI-823, 5-(3-Chlorophenyl)-3-cyclopropylimino-2-(2-methoxy-3-pyridyl)amino-3,5-dihydrophenazine] gave an MIC of 0.03 µg/mL (≈ 0.0641 µM).
Cc1ccc(Nc2cc3nc4ccccc4n(-c4ccc(Br)cc4)c-3c/c2=N\C2CCCCC2)cn1 [TBI-502, 5-(4-Bromophenyl)-3-cyclohexylimino-2-(6-methyl-3-pyridyl)amino-3,5-dihydrophenazine] gave an MIC of 0.217 µg/mL (≈ 0.403 µM).
COc1ncccc1Nc1cc2nc3ccccc3n(-c3ccc(C)cc3)c-2c/c1=N\C(C)C [TBI-308, 5-(4-Methylphenyl)-3-(1-methylethyl)imino-2-(2-methoxy-3-pyridyl)amino-3,5-dihydrophenazine] was tested, and the MIC was 0.125 µg/mL (≈ 0.278 µM).
Cc1ccc(Nc2cc3nc4ccc(F)cc4n(-c4ccc(Cl)c(Cl)c4)c-3c/c2=N\C(C)C)cn1 [TBI-896, 7-Fluoro-5-(3,4-dichlorophenyl)-3-(1-methylethyl)imino-2-(6-methyl-3-pyridyl)amino-3,5-dihydrophenazine] was tested, and the MIC was 0.25 µg/mL (≈ 0.494 µM).
For Cc1ccc(-n2c3c/c(=N\C4CCC(O)CC4)c(Nc4cccnc4C)cc-3nc3ccccc32)cc1 (stereo not shown) [TBI-335, 5-(4-Methylphenyl)-3-(4-hydroxycyclohexyl)imino-2-(2-methyl-3-pyridyl)amino-3,5-dihydrophenazine], the MIC was 0.336 µg/mL (≈ 0.686 µM).
Work on COc1ccc(Nc2cc3nc4ccccc4n(-c4ccc(F)cc4)c-3c/c2=N\C2CCOCC2)cn1 [TBI-935, 5-(4-Fluorophenyl)-3-(4-tetrahydropyranyl)imino-2-(6-methoxy-3-pyridyl)amino-3,5-dihydrophenazine] yielded an MIC of 0.205 µg/mL (≈ 0.414 µM).
With Cc1ccc(Nc2cc3nc4ccccc4n(-c4ccc(C(F)(F)F)cc4)c-3c/c2=N\C2CC2)cn1 [TBI-716, 5-(4-Trifluoromethylphenyl)-3-cyclopropylimino-2-(6-methyl-3-pyridyl)amino-3,5-dihydrophenazine] the MIC was 0.041 µg/mL (≈ 0.0844 µM).
Work on Cc1ncccc1Nc1cc2nc3ccccc3n(-c3ccc(F)cc3)c-2c/c1=N\C1CCOCC1 [TBI-1012, 5-(4-Fluorophenyl)-3-(4-tetrahydropyranyl)imino-2-(2-methyl-3-pyridyl)amino-3,5-dihydrophenazine] yielded an MIC of 0.026 µg/mL (≈ 0.0542 µM).
With COc1nc(C)ccc1Nc1cc2nc3ccccc3n(-c3ccc(F)cc3)c-2c/c1=N\C(C)C [TBI-1092, 5-(4-Fluorophenyl)-3-(1-methylethyl)imino-2-(2-methoxy-6-methyl-3-pyridyl)amino-3,5-dihydrophenazine] the MIC was 0.424 µg/mL (≈ 0.907 µM).
COCC(COC)/N=c1\cc2n(-c3cccc(Cl)c3)c3ccccc3nc-2cc1Nc1cccnc1OC [TBI-825, 5-(3-Chlorophenyl)-3-(1,3-dimethoxyisopropyl)imino-2-(2-methoxy-3-pyridyl)amino-3,5-dihydrophenazine] gave an MIC of 0.125 µg/mL (≈ 0.236 µM).
Compound COc1ncccc1Nc1cc2nc3cc(F)ccc3n(-c3ccc(Cl)cc3)c-2c/c1=N\C1CCOCC1 [TBI-937, 8-Fluoro-5-(4-chlorophenyl)-3-(4-tetrahydropyranyl)imino-2-(2-methoxy-3-pyridyl)amino-3,5-dihydrophenazine] has an MIC of 0.125 µg/mL (≈ 0.236 µM).
Work on Cc1cncc(Nc2cc3nc4ccccc4n(-c4ccc(F)cc4)c-3c/c2=N\C2CC2)c1 [TBI-1030, 5-(4-Fluorophenyl)-3-cyclopropylimino-2-(5-methyl-3-pyridyl)amino-3,5-dihydrophenazine] yielded an MIC of 0.012 µg/mL (≈ 0.0276 µM).
For FC(F)(F)c1ccc(-n2c3c/c(=N\C4CCOCC4)c(Nc4cccnc4)cc-3nc3ccccc32)cc1 [TBI-686, 5-(4-Trifluoromethylphenyl)-3-(4-tetrahydropyranyl)imino-2-(3-pyridyl)amino-3,5-dihydrophenazine], the MIC was 0.125 µg/mL (≈ 0.242 µM).
Work on CC(C)CN1CCC(/N=c2\cc3n(-c4ccc(OC(F)(F)F)cc4)c4ccccc4nc-3cc2Nc2cccnc2)CC1 [TBI-158, 5-(4-Trifluoromethoxyphenyl)-3-(N-isobutyl-4-piperidyl)imino-2-(3-pyridyl)amino-3,5-dihydrophenazine] yielded an MIC of 0.03 µg/mL (≈ 0.0511 µM).
Compound COc1ncccc1Nc1cc2nc3ccccc3n(-c3ccc(NC(C)=O)cc3)c-2c/c1=N\C1CC1 [TBI-1221, 5-(4-Acetamidophenyl)-3-cyclopropylimino-2-(2-methoxy-3-pyridyl)amino-3,5-dihydrophenazine] has an MIC of 0.9 µg/mL (≈ 1.83 µM).
Work on Cc1ccc(Nc2cc3nc4ccccc4n(-c4ccc(F)cc4)c-3c/c2=N\C2CCSCC2)cn1 [TBI-90B, 5-(4-Fluorophenyl)-3-(4-tetrahydrothiopyranyl)imino-2-(6-methyl-3-pyridyl)amino-3,5-dihydrophenazine] yielded an MIC of 0.397 µg/mL (≈ 0.801 µM).
For Cc1ccc(Nc2cc3nc4ccccc4n(-c4ccc(Br)cc4)c-3c/c2=N\C2CCC2)cn1 [TBI-501, 5-(4-Bromophenyl)-3-cyclobutylimino-2-(6-methyl-3-pyridyl)amino-3,5-dihydrophenazine], the MIC was 0.09 µg/mL (≈ 0.176 µM).
COc1ncccc1Nc1cc2nc3ccccc3n(-c3ccc(Br)cc3)c-2c/c1=N\C(C)C [TBI-516, 5-(4-Bromophenyl)-3-(1-methylethyl)imino-2-(2-methoxy-3-pyridyl)amino-3,5-dihydrophenazine] gave an MIC of 0.049 µg/mL (≈ 0.0953 µM).
With COc1ncccc1Nc1cc2nc3ccccc3n(-c3ccc(Cl)c(Cl)c3)c-2c/c1=N\C1CCC1 [TBI-946, 5-(3,4-Dichlorophenyl)-3-cyclobutylimino-2-(2-methoxy-3-pyridyl)amino-3,5-dihydrophenazine] the MIC was 0.06 µg/mL (≈ 0.116 µM).
COc1ccc(Nc2cc3nc4ccccc4n(-c4ccc(C)cc4)c-3c/c2=N\C2CCC(OC)CC2)cn1 (stereo not shown) [TBI-358, 5-(4-Methylphenyl)-3-(4-methoxycyclohexyl)imino-2-(6-methoxy-3-pyrid)amino-3,5-dihydrophenazine] showed an MIC of 0.202 µg/mL (≈ 0.389 µM).
Work on COc1ccc(Nc2cc3nc4ccccc4n(-c4ccc(F)cc4)c-3c/c2=N\C2CCCCC2)cn1 [TBI-932, 5-(4-Fluorophenyl)-3-cyclohexylimino-2-(6-methoxy-3-pyridyl)amino-3,5-dihydrophenazine] yielded an MIC of 0.148 µg/mL (≈ 0.3 µM).
For Cc1cncc(Nc2cc3nc4ccccc4n(-c4ccc(C(F)(F)F)cc4)c-3c/c2=N\C2CCCCC2)c1 [TBI-722, 5-(4-Trifluoromethylphenyl)-3-cyclohexylimino-2-(5-methyl-3-pyridyl)amino-3,5-dihydrophenazine], the MIC was 0.031 µg/mL (≈ 0.0588 µM).
COc1ccc(Nc2cc3nc4ccccc4n(-c4ccc(F)cc4)c-3c/c2=N\C2CCC2)cn1 [TBI-934, 5-(4-Fluorophenyl)-3-cyclobutylimino-2-(6-methoxy-3-pyridyl)amino-3,5-dihydrophenazine] gave an MIC of 0.3 µg/mL (≈ 0.644 µM).
With Cc1ccc(-n2c3c/c(=N\C4CCN(CC(C)C)CC4)c(Nc4cccnc4)cc-3nc3ccccc32)cc1 [TBI-305, 5-(4-Methylphenyl)-3-(N-isobutyl-4-piperidyl)imino-2-(3-pyridyl)amino-3,5-dihydrophenazine] the MIC was 0.125 µg/mL (≈ 0.242 µM).
CC(C)/N=c1\cc2n(-c3ccc(Br)cc3)c3ccccc3nc-2cc1Nc1cccnc1 [TBI-088, 5-(4-Bromophenyl)-3-(1-methylethyl)imino-2-(3-pyridyl)amino-3,5-dihydrophenazine] showed an MIC of 0.023 µg/mL (≈ 0.0475 µM).
With COC1CCC(/N=c2\cc3n(-c4ccc(Cl)c(Cl)c4)c4ccccc4nc-3cc2Nc2cccnc2)CC1 (stereo not shown) [TBI-352, 5-(3,4-Dichlorophenyl)-3-(4-methoxycyclohexyl)imino-2-(3-pyridyl)amino-3,5-dihydrophenazine] the MIC was 0.096 µg/mL (≈ 0.176 µM).
COC1CCC(/N=c2\cc3n(-c4ccccc4)c4ccccc4nc-3cc2Nc2ccc(C)nc2)CC1 (stereo not shown) [TBI-072, 5-Phenyl-3-(4-methoxycyclohexyl)imino-2-(6-methyl-pyridyl)amino-3,5-dihydrophenazine] showed an MIC of 0.091 µg/mL (≈ 0.186 µM).
In the case of COc1ncccc1Nc1cc2nc3ccccc3n(-c3cccc(Cl)c3)c-2c/c1=N\C1CCOCC1 [TBI-822, 5-(3-Chlorophenyl)-3-(4-tetrahydropyranyl)imino-2-(2-methoxy-3-pyridyl)amino-3,5-dihydrophenazine], the MIC is reported as 0.125 µg/mL (≈ 0.244 µM).
CN1CCC(/N=c2\cc3n(-c4ccc(C(F)(F)F)cc4)c4ccccc4nc-3cc2Nc2cccnc2)CC1 [TBI-689, 5-(4-Trifluoromethylphenyl)-3-(N-methyl-4-piperidyl)imino-2-(3-pyridyl)amino-3,5-dihydrophenazine] showed an MIC of 0.125 µg/mL (≈ 0.236 µM).
With Cc1ccc(Nc2cc3nc4ccccc4n(-c4cccc(Cl)c4)c-3c/c2=N\C2CCCCC2)cn1 [TBI-80B, 5-(3-Chlorophenyl)-3-cyclohexylimino-2-(6-methyl-3-pyridyl)amino-3,5-dihydrophenazine] the MIC was 0.125 µg/mL (≈ 0.253 µM).
In the case of Cc1ccc(Nc2cc3nc4ccccc4n(-c4ccc(F)cc4)c-3c/c2=N\CC2CCCN(C)C2)cn1 (stereo not shown) [TBI-902, 5-(4-Fluorophenyl)-3-(N-methyl-3-piperidylmethyl)imino-2-(6-methyl-3-pyridyl)amino-3,5-dihydrophenazine], the MIC is reported as 0.058 µg/mL (≈ 0.114 µM).
Compound Cc1ccc(Nc2cc3nc4ccccc4n(-c4ccc(F)cc4)c-3c/c2=N\[C@H]2CC[C@H](O)CC2)cn1 [TBI-906, 5-(4-Fluorophenyl)-3-(1′,4′-trans-4-hydroxycyclohexyl)imino-2-(6-methyl-3-pyridyl)amino-3,5-dihydrophenazine] has an MIC of 0.5 µg/mL (≈ 1.01 µM).
